Measured values reported in the NIST ThermoML archive (doi:10.1021/acs.jced.5b00627).

Legend:
[1] = for Normal melting temperature: Crystal, DTA; for viscosity: 100 kPa, Capillary tube (Ostwald / Ubbelohde) method; for viscosity / speed of sound / mass density: Liquid; for speed of sound / mass density: 101.33 kPa; for speed of sound: Sing-around technique in a fixed-path interferometer; for mass density: Vibrating tube method
[2] = mn = molality of the nth substance listed, in mol/kg; conditions: 100 kPa, Liquid; for viscosity: Capillary tube (Ostwald / Ubbelohde) method; for speed of sound: Frequency=3 MHz, Sing-around technique in a fixed-path interferometer; for mass density: Vibrating tube method

COc1cc(-c2cc(-c3ccc(Cl)cc3)[nH]c(=O)c2C#N)ccc1O
Conditions | Normal melting temperature [°C]
[1] | 328.34

COc1cc(-c2cc(-c3ccc(O)cc3)[nH]c(=O)c2C#N)ccc1O
Conditions | Normal melting temperature [°C]
[1] | 326.33

COc1cc(-c2cc(-c3ccccc3)[nH]c(=O)c2C#N)ccc1O
Conditions | Normal melting temperature [°C]
[1] | 343.12

COc1cc(-c2cc(-c3ccccc3O)[nH]c(=O)c2C#N)ccc1O
Conditions | Normal melting temperature [°C]
[1] | 234.49

COc1cc(-c2cc(-c3ccc(Cl)cc3)[nH]c(=O)c2C#N)ccc1O + C[S+](C)[O-]
[2]
Conditions | mass density, 298.15 K [kg/m3] | mass density, 308.15 K [kg/m3] | mass density, 318.15 K [kg/m3] | speed of sound, 298.15 K [m/s] | speed of sound, 308.15 K [m/s] | speed of sound, 318.15 K [m/s] | viscosity, 298.15 K [mPa·s] | viscosity, 308.15 K [mPa·s] | viscosity, 318.15 K [mPa·s]
m1 = 0.01 | 1096.42 | 1086.43 | 1076.43 | 1486.1 | 1452.4 | 1418.9 | 1.954 | 1.545 | 1.264
m1 = 0.02 | 1097.3 | 1087.47 | 1077.19 | 1487.2 | 1453.4 | 1419.9 | 1.993 | 1.571 | 1.294
m1 = 0.04 | 1098.53 | 1088.83 | 1078.52 | 1488.4 | 1454.7 | 1421 | 2.037 | 1.614 | 1.324
m1 = 0.06 | 1099.79 | 1089.98 | 1079.89 | 1489.6 | 1455.9 | 1422.2 | 2.081 | 1.655 | 1.355
m1 = 0.08 | 1100.99 | 1091.08 | 1080.99 | 1490.5 | 1456.7 | 1423.2 | 2.129 | 1.699 | 1.391
m1 = 0.1 | 1102.29 | 1092.32 | 1082.35 | 1491.1 | 1457.6 | 1424.5 | 2.172 | 1.73 | 1.427

COc1cc(-c2cc(-c3ccc(O)cc3)[nH]c(=O)c2C#N)ccc1O + C[S+](C)[O-]
[2]
Conditions | mass density, 298.15 K [kg/m3] | mass density, 308.15 K [kg/m3] | mass density, 318.15 K [kg/m3] | speed of sound, 298.15 K [m/s] | speed of sound, 308.15 K [m/s] | speed of sound, 318.15 K [m/s] | viscosity, 298.15 K [mPa·s] | viscosity, 308.15 K [mPa·s] | viscosity, 318.15 K [mPa·s]
m1 = 0.01 | 1096.12 | 1086.44 | 1076.45 | 1486.3 | 1452.4 | 1419 | 1.885 | 1.544 | 1.265
m1 = 0.02 | 1097.17 | 1087.19 | 1077.22 | 1487.3 | 1453.2 | 1420.1 | 1.963 | 1.576 | 1.312
m1 = 0.04 | 1098.34 | 1088.48 | 1078.49 | 1488.9 | 1454.5 | 1421.5 | 2.06 | 1.623 | 1.364
m1 = 0.06 | 1099.52 | 1089.69 | 1079.59 | 1490.6 | 1455.6 | 1422.7 | 2.144 | 1.663 | 1.392
m1 = 0.08 | 1100.69 | 1090.67 | 1080.74 | 1492 | 1456.5 | 1424 | 2.243 | 1.704 | 1.421
m1 = 0.1 | 1101.86 | 1091.98 | 1081.94 | 1493.7 | 1457.4 | 1425.1 | 2.323 | 1.729 | 1.462

COc1cc(-c2cc(-c3ccccc3)[nH]c(=O)c2C#N)ccc1O + C[S+](C)[O-]
[2]
Conditions | mass density, 298.15 K [kg/m3] | mass density, 308.15 K [kg/m3] | mass density, 318.15 K [kg/m3] | speed of sound, 298.15 K [m/s] | speed of sound, 308.15 K [m/s] | speed of sound, 318.15 K [m/s] | viscosity, 298.15 K [mPa·s] | viscosity, 308.15 K [mPa·s] | viscosity, 318.15 K [mPa·s]
m1 = 0.01 | 1096.02 | 1086.02 | 1076.08 | 1485.9 | 1451.9 | 1418.1 | 1.876 | 1.525 | 1.242
m1 = 0.02 | 1096.69 | 1086.78 | 1076.69 | 1486.8 | 1452.8 | 1419.1 | 1.916 | 1.562 | 1.276
m1 = 0.04 | 1097.59 | 1087.93 | 1077.85 | 1488 | 1453.9 | 1420.5 | 1.976 | 1.603 | 1.319
m1 = 0.06 | 1098.59 | 1088.74 | 1078.84 | 1489.1 | 1455 | 1421.6 | 2.02 | 1.638 | 1.345
m1 = 0.08 | 1099.69 | 1089.59 | 1079.75 | 1490.3 | 1456 | 1422.6 | 2.063 | 1.668 | 1.37
m1 = 0.1 | 1100.84 | 1090.64 | 1080.75 | 1491 | 1456.8 | 1423.7 | 2.107 | 1.697 | 1.41

COc1cc(-c2cc(-c3ccccc3O)[nH]c(=O)c2C#N)ccc1O + C[S+](C)[O-]
[2]
Conditions | mass density, 298.15 K [kg/m3] | mass density, 308.15 K [kg/m3] | mass density, 318.15 K [kg/m3] | speed of sound, 298.15 K [m/s] | speed of sound, 308.15 K [m/s] | speed of sound, 318.15 K [m/s] | viscosity, 298.15 K [mPa·s] | viscosity, 308.15 K [mPa·s] | viscosity, 318.15 K [mPa·s]
m1 = 0.01 | 1096.09 | 1086.41 | 1076.4 | 1486 | 1452.1 | 1418.6 | 1.88 | 1.535 | 1.247
m1 = 0.02 | 1097.16 | 1087.16 | 1077.18 | 1487 | 1453.1 | 1419.5 | 1.958 | 1.57 | 1.287
m1 = 0.04 | 1098.32 | 1088.47 | 1078.47 | 1488.6 | 1454.2 | 1420.8 | 2.037 | 1.608 | 1.327
m1 = 0.06 | 1099.5 | 1089.66 | 1079.56 | 1490.2 | 1455.2 | 1422 | 2.124 | 1.645 | 1.359
m1 = 0.08 | 1100.68 | 1090.65 | 1080.71 | 1491.7 | 1456.3 | 1423 | 2.201 | 1.685 | 1.399
m1 = 0.1 | 1101.83 | 1091.96 | 1081.9 | 1493.5 | 1457 | 1424.3 | 2.301 | 1.716 | 1.458

C[S+](C)[O-] [dimethyl sulfoxide]
[1]
Conditions | mass density [kg/m3] | speed of sound [m/s] | viscosity [mPa·s]
298.15 K | 1095.28 | 1484.8 | 1.814
308.15 K | 1085.23 | 1450.9 | 1.472
318.15 K | 1075.19 | 1417.4 | 1.176

C[S+](C)[O-] [dimethyl sulfoxide] + COc1cc(-c2cc(-c3ccc(Cl)cc3)[nH]c(=O)c2C#N)ccc1O
[2], m2 = 0
Conditions | mass density [kg/m3] | speed of sound [m/s] | viscosity [mPa·s]
298.15 K | 1095.28 | 1484.8 | 1.814
308.15 K | 1085.23 | 1450.9 | 1.472
318.15 K | 1075.19 | 1417.4 | 1.176

C[S+](C)[O-] [dimethyl sulfoxide] + COc1cc(-c2cc(-c3ccc(O)cc3)[nH]c(=O)c2C#N)ccc1O
[2], m2 = 0
Conditions | mass density [kg/m3] | speed of sound [m/s] | viscosity [mPa·s]
298.15 K | 1095.28 | 1484.8 | 1.814
308.15 K | 1085.23 | 1450.9 | 1.472
318.15 K | 1075.19 | 1417.4 | 1.176

C[S+](C)[O-] [dimethyl sulfoxide] + COc1cc(-c2cc(-c3ccccc3)[nH]c(=O)c2C#N)ccc1O
[2], m2 = 0
Conditions | mass density [kg/m3] | speed of sound [m/s] | viscosity [mPa·s]
298.15 K | 1095.28 | 1484.8 | 1.814
308.15 K | 1085.23 | 1450.9 | 1.472
318.15 K | 1075.19 | 1417.4 | 1.176

C[S+](C)[O-] [dimethyl sulfoxide] + COc1cc(-c2cc(-c3ccccc3O)[nH]c(=O)c2C#N)ccc1O
[2], m2 = 0
Conditions | mass density [kg/m3] | speed of sound [m/s] | viscosity [mPa·s]
298.15 K | 1095.28 | 1484.8 | 1.814
308.15 K | 1085.23 | 1450.9 | 1.472
318.15 K | 1075.19 | 1417.4 | 1.176
